# What was measured:
# Type in all cases: in vivo
# [1] = system: warm season plant species; test: B2 Post-emergence efficacy Test 2, warm season plant species; conditions: 15 days after application, 0-100 scale, 0=no damage, 100=total kill; for Herbicidal activity, ABUTH: Abutilon theophrasti; for Herbicidal activity, AMARE: Amaranthus retroflexus; for Herbicidal activity, BIDPI: Bidens pilosa; for Herbicidal activity, BRAPL: Brachiaria plantaginea; for Herbicidal activity, DIGSA: Digitaria sanguinalis; for Herbicidal activity, ECHCG: Echinochloa crus galli; for Herbicidal activity, ELEIN: Eleisine indica; for Herbicidal activity, EPHHL: Euphorbia hetrophylla; for Herbicidal activity, GLXMA: Glycine max; for Herbicidal activity, IPOHE: Ipomoea hederacea; for Herbicidal activity, ORYSA: Orysa sativa; for Herbicidal activity, PANMI: Panicum miliaceum; for Herbicidal activity, SETFA: Setaria faberi; for Herbicidal activity, SIDSP: Sida spinosa; for Herbicidal activity, SORVU: Sorghum bicolour; for Herbicidal activity, XANST: Xanthium strumarium; for Herbicidal activity, ZEAMX: Zea mays
# In short: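 Herbicidal effect rated visually 0 (no damage) to 100 (complete kill) at 15 days post-treatment. Post-emergence spray at 12 days used an IF50 formulation with 0.2% v/v Genapol XO80 adjuvant; glasshouse 24/18 or 20/16 °C, 16 h light, 65% humidity.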
# [2] = system: Amaranthus retoflexus (AMARE); test: B1 Post-emergence efficacy Test 1; conditions: post-emergence application, 1000 g/ha, evaluated after 13 days
# In short: (§1)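 Plants sprayed 8 days after sowing with compound at 1000 g/ha in acetone/water (50:50) with 0.5% Tween 20; glasshouse at 24/16 °C day/night, 14 h light, 65% humidity. Damage scored 13 days later on a five-point scale (5=80-100% to 1=0-19%).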
# [3] = system: Setaria faberi (SETFA); test: B1 Post-emergence efficacy Test 1; conditions: post-emergence application, 1000 g/ha, evaluated after 13 days
# In short: as §1
# [4] = system: Echinochloa crus-galli (ECHCG); test: B1 Post-emergence efficacy Test 1; conditions: post-emergence application, 1000 g/ha, evaluated after 13 days
# In short: as §1
# [5] = system: Ipomoea hederacea (IPOHE); test: B1 Post-emergence efficacy Test 1; conditions: post-emergence application, 1000 g/ha, evaluated after 13 days
# In short: as §1
# [6] = system: Lolium perenne (LOLPE); test: B1 Post-emergence efficacy Test 1; conditions: post-emergence application, 1000 g/ha, evaluated after 13 days
# In short: as §1
# [7] = system: Solanum nigrum (SOLNI); test: B1 Post-emergence efficacy Test 1; conditions: post-emergence application, 1000 g/ha, evaluated after 13 days
# In short: as §1
smiles,measurement,setting,value
Cc1nn(C)c(=O)c(-c2c(F)ccc(Cl)c2CCc2ccc(C#N)cc2)c1O [Compound 1.024],"Herbicidal activity, ABUTH",[1]; 15 g/Ha,90
same,"Herbicidal activity, ABUTH",[1]; 30 g/Ha,90
same,"Herbicidal activity, ABUTH",[1]; 60 g/Ha,100
same,"Herbicidal activity, ABUTH",[1]; 125 g/Ha,100
same,"Herbicidal activity, ABUTH",[1]; 250 g/Ha,100
same,"Herbicidal activity, ABUTH",[1]; 500 g/Ha,100
same,"Herbicidal activity, AMARE",[1]; 15 g/Ha,80
same,"Herbicidal activity, AMARE",[1]; 30 g/Ha,90
same,"Herbicidal activity, AMARE",[1]; 60 g/Ha,90
same,"Herbicidal activity, AMARE",[1]; 125 g/Ha,100
same,"Herbicidal activity, AMARE",[1]; 250 g/Ha,100
same,"Herbicidal activity, AMARE",[1]; 500 g/Ha,100
same,"Herbicidal activity, BIDPI",[1]; 15 g/Ha,80
same,"Herbicidal activity, BIDPI",[1]; 30 g/Ha,80
same,"Herbicidal activity, BIDPI",[1]; 60 g/Ha,80
same,"Herbicidal activity, BIDPI",[1]; 125 g/Ha,80
same,"Herbicidal activity, BIDPI",[1]; 250 g/Ha,80
same,"Herbicidal activity, BIDPI",[1]; 500 g/Ha,90
same,"Herbicidal activity, BRAPL",[1]; 15 g/Ha,30
same,"Herbicidal activity, BRAPL",[1]; 30 g/Ha,60
same,"Herbicidal activity, BRAPL",[1]; 60 g/Ha,70
same,"Herbicidal activity, BRAPL",[1]; 125 g/Ha,70
same,"Herbicidal activity, BRAPL",[1]; 250 g/Ha,70
same,"Herbicidal activity, BRAPL",[1]; 500 g/Ha,90
same,"Herbicidal activity, DIGSA",[1]; 15 g/Ha,0
same,"Herbicidal activity, DIGSA",[1]; 30 g/Ha,20
same,"Herbicidal activity, DIGSA",[1]; 60 g/Ha,40
same,"Herbicidal activity, DIGSA",[1]; 125 g/Ha,80
same,"Herbicidal activity, DIGSA",[1]; 250 g/Ha,90
same,"Herbicidal activity, DIGSA",[1]; 500 g/Ha,90
same,"Herbicidal activity, ECHCG",[1]; 15 g/Ha,70
same,"Herbicidal activity, ECHCG",[1]; 30 g/Ha,80
same,"Herbicidal activity, ECHCG",[1]; 60 g/Ha,80
same,"Herbicidal activity, ECHCG",[1]; 125 g/Ha,90
same,"Herbicidal activity, ECHCG",[1]; 250 g/Ha,90
same,"Herbicidal activity, ECHCG",[1]; 500 g/Ha,100
same,"Herbicidal activity, ELEIN",[1]; 15 g/Ha,0
same,"Herbicidal activity, ELEIN",[1]; 30 g/Ha,40
same,"Herbicidal activity, ELEIN",[1]; 60 g/Ha,40
same,"Herbicidal activity, ELEIN",[1]; 125 g/Ha,60
same,"Herbicidal activity, ELEIN",[1]; 250 g/Ha,80
same,"Herbicidal activity, ELEIN",[1]; 500 g/Ha,80
same,"Herbicidal activity, EPHHL",[1]; 15 g/Ha,70
same,"Herbicidal activity, EPHHL",[1]; 30 g/Ha,90
same,"Herbicidal activity, EPHHL",[1]; 60 g/Ha,90
same,"Herbicidal activity, EPHHL",[1]; 125 g/Ha,90
same,"Herbicidal activity, EPHHL",[1]; 250 g/Ha,100
same,"Herbicidal activity, EPHHL",[1]; 500 g/Ha,100
same,"Herbicidal activity, GLXMA",[1]; 15 g/Ha,70
same,"Herbicidal activity, GLXMA",[1]; 30 g/Ha,80
same,"Herbicidal activity, GLXMA",[1]; 60 g/Ha,90
same,"Herbicidal activity, GLXMA",[1]; 125 g/Ha,90
same,"Herbicidal activity, GLXMA",[1]; 250 g/Ha,100
same,"Herbicidal activity, GLXMA",[1]; 500 g/Ha,100
same,"Herbicidal activity, IPOHE",[1]; 30 g/Ha,100
same,"Herbicidal activity, IPOHE",[1]; 60 g/Ha,100
same,"Herbicidal activity, IPOHE",[1]; 125 g/Ha,100
same,"Herbicidal activity, IPOHE",[1]; 250 g/Ha,100
same,"Herbicidal activity, IPOHE",[1]; 500 g/Ha,100
same,"Herbicidal activity, ORYSA",[1]; 15 g/Ha,0
same,"Herbicidal activity, ORYSA",[1]; 30 g/Ha,0
same,"Herbicidal activity, ORYSA",[1]; 60 g/Ha,0
same,"Herbicidal activity, ORYSA",[1]; 125 g/Ha,0
same,"Herbicidal activity, ORYSA",[1]; 250 g/Ha,20
same,"Herbicidal activity, ORYSA",[1]; 500 g/Ha,40
same,"Herbicidal activity, PANMI",[1]; 15 g/Ha,0
same,"Herbicidal activity, PANMI",[1]; 30 g/Ha,70
same,"Herbicidal activity, PANMI",[1]; 60 g/Ha,80
same,"Herbicidal activity, PANMI",[1]; 125 g/Ha,90
same,"Herbicidal activity, PANMI",[1]; 250 g/Ha,90
same,"Herbicidal activity, PANMI",[1]; 500 g/Ha,100
same,"Herbicidal activity, SETFA",[1]; 15 g/Ha,20
same,"Herbicidal activity, SETFA",[1]; 30 g/Ha,70
same,"Herbicidal activity, SETFA",[1]; 60 g/Ha,80
same,"Herbicidal activity, SETFA",[1]; 125 g/Ha,90
same,"Herbicidal activity, SETFA",[1]; 250 g/Ha,90
same,"Herbicidal activity, SETFA",[1]; 500 g/Ha,100
same,"Herbicidal activity, SIDSP",[1]; 15 g/Ha,80
same,"Herbicidal activity, SIDSP",[1]; 30 g/Ha,90
same,"Herbicidal activity, SIDSP",[1]; 60 g/Ha,90
same,"Herbicidal activity, SIDSP",[1]; 125 g/Ha,100
same,"Herbicidal activity, SIDSP",[1]; 250 g/Ha,100
same,"Herbicidal activity, SIDSP",[1]; 500 g/Ha,100
same,"Herbicidal activity, SORVU",[1]; 15 g/Ha,0
same,"Herbicidal activity, SORVU",[1]; 30 g/Ha,10
same,"Herbicidal activity, SORVU",[1]; 60 g/Ha,70
same,"Herbicidal activity, SORVU",[1]; 125 g/Ha,80
same,"Herbicidal activity, SORVU",[1]; 250 g/Ha,90
same,"Herbicidal activity, SORVU",[1]; 500 g/Ha,100
same,"Herbicidal activity, XANST",[1]; 60 g/Ha,80
same,"Herbicidal activity, XANST",[1]; 125 g/Ha,80
same,"Herbicidal activity, XANST",[1]; 500 g/Ha,100
same,"Herbicidal activity, ZEAMX",[1]; 15 g/Ha,0
same,"Herbicidal activity, ZEAMX",[1]; 30 g/Ha,10
same,"Herbicidal activity, ZEAMX",[1]; 60 g/Ha,20
same,"Herbicidal activity, ZEAMX",[1]; 125 g/Ha,40
same,"Herbicidal activity, ZEAMX",[1]; 250 g/Ha,70
same,"Herbicidal activity, ZEAMX",[1]; 500 g/Ha,100
same,"percentage damage caused to the plant, five point scale, AMARE",[2],5 (5=80-100%)
same,"percentage damage caused to the plant, five point scale, SETFA",[3],5 (5=80-100%)
same,"percentage damage caused to the plant, five point scale, ECHCG",[4],5 (5=80-100%)
same,"percentage damage caused to the plant, five point scale, IPOHE",[5],5 (5=80-100%)
same,"percentage damage caused to the plant, five point scale, LOLPE",[6],5 (5=80-100%)
same,"percentage damage caused to the plant, five point scale, SOLNI",[7],5 (5=80-100%)
